Measured values reported in the NIST ThermoML archive (doi:10.1016/j.jct.2014.07.026).

Experiment: mn = molality of the nth substance listed, in mol/kg
Settings: 100 kPa, Liquid; for mass density: Vibrating tube method; for speed of sound: Frequency=2 MHz, Linear variable-path acoustic interferometer

CCCCn1cc[n+](C)c1.NCC(=O)[O-] [1-butyl-3-methylimidazolium glycinate] + O
Settings	mass density [kg/m3]	speed of sound [m/s]
293.15 K, m1 = 0.03911	999.516	–
293.15 K, m1 = 0.05766	1000.13	–
293.15 K, m1 = 0.07571	1000.71	–
293.15 K, m1 = 0.09405	1001.28	–
293.15 K, m1 = 0.1177	1002.03	–
293.15 K, m1 = 0.1634	1003.42	–
293.15 K, m1 = 0.2013	1004.58	–
293.15 K, m1 = 0.2535	1006.13	–
293.15 K, m1 = 0.2905	1007.2	–
293.15 K, m1 = 0.3496	1008.89	–
293.15 K, m1 = 0.4089	1010.57	–
293.15 K, m1 = 0.4607	1012	–
293.15 K, m1 = 0.5188	1013.58	–
298.15 K, m1 = 0.03911	998.332	–
298.15 K, m1 = 0.05112	–	1505.2
298.15 K, m1 = 0.05766	998.92	–
298.15 K, m1 = 0.07571	999.491	–
298.15 K, m1 = 0.09405	1000.03	–
298.15 K, m1 = 0.1057	–	1512.8
298.15 K, m1 = 0.1177	1000.77	–
298.15 K, m1 = 0.1479	–	1518.7
298.15 K, m1 = 0.1634	1002.14	–
298.15 K, m1 = 0.1966	–	1525.4
298.15 K, m1 = 0.2013	1003.25	–
298.15 K, m1 = 0.2458	–	1531.5
298.15 K, m1 = 0.2535	1004.78	–
298.15 K, m1 = 0.2904	–	1537.8
298.15 K, m1 = 0.2905	1005.83	–
298.15 K, m1 = 0.3486	–	1545.1
298.15 K, m1 = 0.3496	1007.53	–
298.15 K, m1 = 0.4012	–	1551.1
298.15 K, m1 = 0.4089	1009.11	–
298.15 K, m1 = 0.4523	–	1557.8
298.15 K, m1 = 0.4607	1010.51	–
298.15 K, m1 = 0.5188	1012.11	–
298.15 K, m1 = 0.5271	–	1566.9
303.15 K, m1 = 0.03911	996.915	–
303.15 K, m1 = 0.05766	997.485	–
303.15 K, m1 = 0.07571	998.049	–
303.15 K, m1 = 0.09405	998.596	–
303.15 K, m1 = 0.1177	999.306	–
303.15 K, m1 = 0.1634	1000.64	–
303.15 K, m1 = 0.2013	1001.73	–
303.15 K, m1 = 0.2535	1003.2	–
303.15 K, m1 = 0.2905	1004.25	–
303.15 K, m1 = 0.3496	1005.87	–
303.15 K, m1 = 0.4089	1007.48	–
303.15 K, m1 = 0.4607	1008.89	–
303.15 K, m1 = 0.5188	1010.43	–
308.15 K, m1 = 0.03804	995.245	–
308.15 K, m1 = 0.05959	995.908	–
308.15 K, m1 = 0.07881	996.479	–
308.15 K, m1 = 0.09916	997.101	–
308.15 K, m1 = 0.1199	997.708	–
308.15 K, m1 = 0.1512	998.623	–
308.15 K, m1 = 0.206	1000.16	–
308.15 K, m1 = 0.2462	1001.31	–
308.15 K, m1 = 0.2873	1002.43	–
308.15 K, m1 = 0.359	1004.36	–
308.15 K, m1 = 0.3954	1005.3	–
308.15 K, m1 = 0.4498	1006.76	–
308.15 K, m1 = 0.5188	1008.59	–
313.15 K, m1 = 0.03949	993.444	–
313.15 K, m1 = 0.05959	994.046	–
313.15 K, m1 = 0.07881	994.62	–
313.15 K, m1 = 0.09916	995.217	–
313.15 K, m1 = 0.1199	995.816	–
313.15 K, m1 = 0.1512	996.706	–
313.15 K, m1 = 0.206	998.24	–
313.15 K, m1 = 0.2462	999.361	–
313.15 K, m1 = 0.2873	1000.45	–
313.15 K, m1 = 0.359	1002.39	–
313.15 K, m1 = 0.3954	1003.31	–
313.15 K, m1 = 0.4498	1004.72	–
313.15 K, m1 = 0.5188	1006.52	–
